US20190175744A1, “INSULIN-INCRETIN CONJUGATES” (Merck Sharp & Dohme Corp., priority 2016, published 2019)
Where two headings read alike, the source gives them in different places. Non-standard residues stand in square brackets, D forms with d. Residues, ends and D or L forms follow the SMILES beside them. Lys(N3) = [N-]=[N+]=NCCCC[C@H](N)C(=O)O; Aib = CC(C)(N)C(=O)O

Assays:
[1] = target: T1, human GCGR (Homo sapiens, UniProt P47871); assay: cAMP activity assay, cells expressing human GCGR; format: cell-based; settings: for GCGR/GLP1R ratio: Table 5, ratio of hGCGR EC50 to hGLP1R EC50;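 on all read-outs here: cAMP production read by luminescence after one hour of peptide exposure at room temperature, EC50 from logistic curve fit, native glucagon and GLP-1 as control peptides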
T1 construct: expressed in transfected cells; grown with Blasticidin and Hygromycin
Description: (§1) Activity of the incretin peptides or the conjugates at the Glucagon receptor (GCGR) and GLP-1 receptor (GLP1R) may be measured in a cAMP activity assay as follows.
(§2) Peptides are dissolved in 100% DMSO and serially diluted to generate 10 point titrations. The peptide solutions are then transferred into 384-well assay plates (150 nL/well). Assay ready frozen cells expressing human GLP1R or human GCGR are suspended in growth media consisting of DMEM medium (GIBCO), 10% FBS (GIBCO), 1×NEAA(GIBCO), 1×P/S (GIBCO), 10 μg/mL Blasticidin (GIBCO) and 200 μg/mL Hygromycin (GIBCO). […] The cell suspensions (15 μL) are then added to the assay plates containing the peptide solutions (30,000 cells/well for human GCGR; 10,000 cells/well for human GLP1R). The cells are incubated for one hour at room temperature in the dark.
(§3) Production of cAMP may be determined using HitHunterr cAMPXS kits (DiscoverX) following the manufacturer's protocol. The plates are incubated for overnight at room temperature in the dark. Luminescence may be measured using an EnVision Multilabel plate reader (Perkin Elmer). Native GLP-1 and Glucagon (Bachem) may be used as control peptides. EC50 values may be calculated using uses a 4 parameter logistic fit based on the Levenberg-Marquardt algorithm.

[2] = target: human GLP1R (Homo sapiens, UniProt P43220); assay: cAMP activity assay, cells expressing human GLP1R; format: cell-based
Description: as §1, §2, §3

[3] = Table 5, incretin peptides, cAMP, read-out: hGLP1R EC50
[4] = Table 5, incretin peptides, cAMP, read-out: hGCGR_EC50

T1 sequence (P47871 26-477): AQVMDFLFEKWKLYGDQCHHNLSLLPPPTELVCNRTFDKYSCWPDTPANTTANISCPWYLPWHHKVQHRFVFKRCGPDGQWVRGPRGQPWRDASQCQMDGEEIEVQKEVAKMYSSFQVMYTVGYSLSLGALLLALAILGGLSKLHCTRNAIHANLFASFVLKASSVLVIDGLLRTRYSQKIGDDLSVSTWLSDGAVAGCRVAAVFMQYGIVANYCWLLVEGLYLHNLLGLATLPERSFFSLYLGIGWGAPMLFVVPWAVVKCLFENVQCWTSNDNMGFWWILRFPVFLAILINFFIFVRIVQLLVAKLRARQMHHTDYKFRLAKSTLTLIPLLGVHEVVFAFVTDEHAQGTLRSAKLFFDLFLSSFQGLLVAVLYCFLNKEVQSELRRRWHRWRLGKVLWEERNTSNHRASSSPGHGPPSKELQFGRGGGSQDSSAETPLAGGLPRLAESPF
human GLP1R, sequence (P43220 24-463): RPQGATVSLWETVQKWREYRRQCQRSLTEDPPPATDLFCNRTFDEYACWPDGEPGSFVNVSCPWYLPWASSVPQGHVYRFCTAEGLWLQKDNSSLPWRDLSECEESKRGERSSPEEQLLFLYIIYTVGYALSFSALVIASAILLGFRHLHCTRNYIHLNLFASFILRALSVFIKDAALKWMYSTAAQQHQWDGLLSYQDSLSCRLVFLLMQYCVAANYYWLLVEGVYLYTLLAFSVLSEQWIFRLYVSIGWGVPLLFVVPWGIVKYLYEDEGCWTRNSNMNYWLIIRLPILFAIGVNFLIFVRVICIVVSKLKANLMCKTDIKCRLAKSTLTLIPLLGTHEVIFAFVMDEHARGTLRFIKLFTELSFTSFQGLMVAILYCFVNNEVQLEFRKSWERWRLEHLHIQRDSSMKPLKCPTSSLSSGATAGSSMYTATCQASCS

Compound	GCGR/GLP1R ratio [1]	EC50 [2, 3] [nM]	EC50 [1, 4] [nM]	EC50 [1] [nM]	EC50 [2] [nM]
CC(C)C[C@H](NC(=O)[C@H](Cc1ccc(O)cc1)NC(=O)[C@H](CCCCN)NC(=O)[C@H](CO)NC(=O)[C@H](Cc1ccc(O)cc1)NC(=O)[C@H](CC(=O)O)NC(=O)[C@H](CO)NC(=O)[C@@H](NC(=O)[C@H](Cc1ccccc1)NC(=O)[C@@H](NC(=O)CNC(=O)[C@H](CCC(N)=O)NC(=O)C(C)(C)NC(=O)[C@@H](N)Cc1c[nH]cn1)[C@@H](C)O)[C@@H](C)O)C(=O)N[C@@H](CC(=O)O)C(=O)N[C@@H](C)C(=O)N[C@@H](CCCNC(=N)N)C(=O)N[C@@H](C)C(=O)N[C@@H](C)C(=O)N[C@@H](CCCCNC(=O)COCCOCCNC(=O)COCCOCCNC(=O)CC[C@H](NC(=O)CCCCCCCCCCCCCCCCC(=O)O)C(=O)O)C(=O)N[C@@H](CC(=O)O)C(=O)N[C@@H](Cc1ccccc1)C(=O)N[C@H](C(=O)N[C@@H](CCCCN=[N+]=[N-])C(=O)N[C@@H](Cc1c[nH]c2ccccc12)C(=O)N[C@@H](CC(C)C)C(=O)N[C@@H](CCS(C)(=O)=O)C(=O)N[C@@H](CC(=O)O)C(=O)N[C@H](C(N)=O)[C@@H](C)O)C(C)C [PEP30]	4.5	0.5	–	–	–
CCCCCCCCCCCCCCCC(=O)N[C@@H](CCC(=O)N[C@@H](CCC(=O)NCCCC[C@H](NC(=O)[C@](C)(CC(=O)O)NC(=O)[C@H](CO)NC(=O)[C@@H](NC(=O)[C@H](Cc1ccccc1)NC(=O)[C@@H](NC(=O)CNC(=O)[C@H](CCC(N)=O)NC(=O)[C@@H](CO)NC(=O)[C@@H](N)Cc1c[nH]cn1)[C@@H](C)O)[C@@H](C)O)C(=O)N[C@@H](CO)C(=O)N[C@@H](CCCCN)C(=O)N[C@@H](Cc1ccc(O)cc1)C(=O)N[C@@H](CC(C)C)C(=O)N[C@@H](CC(=O)O)C(=O)N[C@@H](CCC(=O)O)C(=O)N[C@@H](CCCNC(=N)N)C(=O)N[C@@H](C)C(=O)N[C@@H](C)C(=O)N[C@@H](CCC(N)=O)C(=O)N[C@@H](CC(=O)O)C(=O)N[C@@H](Cc1ccccc1)C(=O)N[C@H](C(=O)N[C@@H](CCCCN=[N+]=[N-])C(=O)N[C@@H](Cc1c[nH]c2ccccc12)C(=O)N[C@@H](CC(C)C)C(=O)N[C@@H](CCS(C)(=O)=O)C(=O)N[C@@H](CC(=O)O)C(=O)N[C@H](C(N)=O)[C@@H](C)O)C(C)C)C(=O)O)C(=O)O [PEP32]	1.5	–	–	0.06	0.04
CCCCCCCCCCCCCCCC(=O)N[C@@H](CCC(=O)N[C@@H](CCC(=O)NCCCC[C@H](NC(=O)[C@H](CC(=O)O)NC(=O)[C@H](CO)NC(=O)[C@@H](NC(=O)[C@H](Cc1ccccc1)NC(=O)[C@@H](NC(=O)CNC(=O)[C@H](CCC(N)=O)NC(=O)[C@@H](CO)NC(=O)[C@@H](N)Cc1c[nH]cn1)[C@@H](C)O)[C@@H](C)O)C(=O)N[C@@H](CO)C(=O)N[C@@H](CCCCN)C(=O)N[C@@H](Cc1ccc(O)cc1)C(=O)N[C@@H](CC(C)C)C(=O)N[C@@H](CC(=O)O)C(=O)N[C@@H](CCC(=O)O)C(=O)N[C@@H](CCCNC(=N)N)C(=O)N[C@@H](C)C(=O)N[C@@H](C)C(=O)N[C@@H](CCC(N)=O)C(=O)N[C@@](C)(CC(=O)O)C(=O)N[C@@H](Cc1ccccc1)C(=O)N[C@H](C(=O)N[C@@H](CCCCN=[N+]=[N-])C(=O)N[C@@H](Cc1c[nH]c2ccccc12)C(=O)N[C@@H](CC(C)C)C(=O)N[C@@H](CCS(C)(=O)=O)C(=O)N[C@@H](CC(=O)O)C(=O)N[C@H](C(N)=O)[C@@H](C)O)C(C)C)C(=O)O)C(=O)O [PEP34]	1.0	–	–	0.05	0.05
CC(C)C[C@H](NC(=O)[C@H](Cc1ccc(O)cc1)NC(=O)[C@H](CCCCN)NC(=O)[C@H](CO)NC(=O)[C@H](CCCCN)NC(=O)[C@H](CC(=O)O)NC(=O)[C@H](CO)NC(=O)[C@@H](NC(=O)[C@H](Cc1ccccc1)NC(=O)[C@@H](NC(=O)CNC(=O)[C@H](CCC(N)=O)NC(=O)[C@@H](CO)NC(=O)[C@@H](N)Cc1c[nH]cn1)[C@@H](C)O)[C@@H](C)O)C(=O)N[C@@H](CC(=O)O)C(=O)N[C@@H](CCC(=O)O)C(=O)N[C@@H](CCCNC(=N)N)C(=O)N[C@@H](C)C(=O)N[C@@H](C)C(=O)N[C@@H](CCC(N)=O)C(=O)N[C@@H](CC(=O)O)C(=O)N[C@@H](Cc1ccccc1)C(=O)N[C@H](C(=O)N[C@@H](CCCCN=[N+]=[N-])C(=O)N[C@@H](Cc1c[nH]c2ccccc12)C(=O)N[C@@H](CC(C)C)C(=O)N[C@@H](CC(C)C)C(=O)N[C@@H](CC(=O)O)C(=O)N[C@H](C(N)=O)[C@@H](C)O)C(C)C [PEP69]	1.9	–	–	0.31	0.16

Second part, led by results:

GCGR/GLP1R ratio [1]	EC50 [2, 3] [nM]	EC50 [1, 4] [nM]	Compound	EC50 [1] [nM]	EC50 [2] [nM]
1.0	0.05	0.05	CCCCCCCCCCCCCCCC(=O)N[C@@H](CCC(=O)N[C@@H](CCC(=O)NCCCC[C@H](NC(=O)[C@H](CC(=O)O)NC(=O)[C@H](CO)NC(=O)[C@@H](NC(=O)[C@H](Cc1ccccc1)NC(=O)[C@@H](NC(=O)CNC(=O)[C@H](CCC(N)=O)NC(=O)[C@@H](CO)NC(=O)[C@@H](N)Cc1c[nH]cn1)[C@@H](C)O)[C@@H](C)O)C(=O)N[C@@H](CO)C(=O)N[C@@H](CCCCN)C(=O)N[C@@H](Cc1ccc(O)cc1)C(=O)N[C@@H](CC(C)C)C(=O)N[C@@H](CC(=O)O)C(=O)N[C@@H](CCC(=O)O)C(=O)N[C@@H](CCCNC(=N)N)C(=O)N[C@@H](C)C(=O)N[C@@H](C)C(=O)N[C@@H](CCC(N)=O)C(=O)N[C@@H](CC(=O)O)C(=O)N[C@@](C)(Cc1ccccc1)C(=O)N[C@H](C(=O)N[C@@H](CCCCN=[N+]=[N-])C(=O)N[C@@H](Cc1c[nH]c2ccccc12)C(=O)N[C@@H](CC(C)C)C(=O)N[C@@H](CCS(C)(=O)=O)C(=O)N[C@@H](CC(=O)O)C(=O)N[C@H](C(N)=O)[C@@H](C)O)C(C)C)C(=O)O)C(=O)O [PEP35]	–	–
1.5	0.04	0.06	CCCCCCCCCCCCCCCC(=O)N[C@@H](CCC(=O)N[C@@H](CCC(=O)NCCCC[C@H](NC(=O)[C@H](CC(=O)O)NC(=O)[C@H](CO)NC(=O)[C@@H](NC(=O)[C@H](Cc1ccccc1)NC(=O)[C@@H](NC(=O)CNC(=O)[C@H](CCC(N)=O)NC(=O)[C@@H](CO)NC(=O)[C@@H](N)Cc1c[nH]cn1)[C@@H](C)O)[C@@H](C)O)C(=O)N[C@@H](CO)C(=O)N[C@@H](CCCCN)C(=O)N[C@@H](Cc1ccc(O)cc1)C(=O)N[C@@H](CC(C)C)C(=O)N[C@@H](CC(=O)O)C(=O)N[C@@H](CCC(=O)O)C(=O)N[C@@H](CCCNC(=N)N)C(=O)N[C@@H](C)C(=O)N[C@@H](C)C(=O)N[C@@H](CCC(N)=O)C(=O)N[C@@H](CC(=O)O)C(=O)N[C@@H](Cc1ccccc1)C(=O)N[C@H](C(=O)N[C@@H](CCCCN=[N+]=[N-])C(=O)N[C@@H](Cc1c[nH]c2ccccc12)C(=O)N[C@@](C)(CC(C)C)C(=O)N[C@@H](CCS(C)(=O)=O)C(=O)N[C@@H](CC(=O)O)C(=O)N[C@H](C(N)=O)[C@@H](C)O)C(C)C)C(=O)O)C(=O)O [PEP37]	–	–
38.6	0.07	2.7	CSCC[C@H](NC(=O)[C@H](CC(C)C)NC(=O)[C@H](Cc1c[nH]c2ccccc12)NC(=O)[C@H](CCCCN=[N+]=[N-])NC(=O)[C@@H](NC(=O)[C@H](Cc1ccccc1)NC(=O)[C@H](CC(=O)O)NC(=O)[C@H](CCC(N)=O)NC(=O)[C@H](C)NC(=O)[C@H](C)NC(=O)[C@H](CCCNC(=N)N)NC(=O)C(C)(C)NC(=O)[C@H](CC(=O)O)NC(=O)[C@H](CC(C)C)NC(=O)[C@H](Cc1ccc(O)cc1)NC(=O)[C@H](CCCCN)NC(=O)[C@H](CO)NC(=O)[C@H](CCCCN)NC(=O)[C@H](CC(=O)O)NC(=O)[C@H](CO)NC(=O)[C@@H](NC(=O)[C@H](Cc1ccccc1)NC(=O)[C@@H](NC(=O)CNC(=O)[C@H](CCC(N)=O)NC(=O)C(C)(C)NC(=O)[C@@H](N)Cc1c[nH]cn1)[C@@H](C)O)[C@@H](C)O)C(C)C)C(=O)N[C@@H](CC(N)=O)C(=O)N[C@H](C(=O)N[C@@H](CCCCN)C(=O)N[C@@H](CCC(N)=O)C(=O)O)[C@@H](C)O [PEP68] (H-H[Aib]QGTFTSDKSKYLD[Aib]RAAQDFV[Lys(N3)]WLMNTKQ-OH; N-terminus assumed)	–	–
2.0	0.06	–	CC(C)C[C@H](NC(=O)[C@H](Cc1ccc(O)cc1)NC(=O)[C@H](CCCCN)NC(=O)[C@H](CO)NC(=O)[C@H](CCCCN)NC(=O)[C@H](CC(=O)O)NC(=O)[C@H](CO)NC(=O)[C@@H](NC(=O)[C@H](Cc1ccccc1)NC(=O)[C@@H](NC(=O)CNC(=O)[C@H](CCC(N)=O)NC(=O)[C@@H](CO)NC(=O)[C@@H](N)Cc1c[nH]cn1)[C@@H](C)O)[C@@H](C)O)C(=O)N[C@@H](CC(=O)O)C(=O)N[C@@H](CCC(=O)O)C(=O)N[C@@H](CCCNC(=N)N)C(=O)N[C@@H](C)C(=O)N[C@@H](C)C(=O)N[C@@H](CCCCN=[N+]=[N-])C(=O)N[C@@H](CC(=O)O)C(=O)N[C@@H](Cc1ccccc1)C(=O)N[C@H](C(=O)N[C@@H](CCC(N)=O)C(=O)N[C@@H](Cc1c[nH]c2ccccc12)C(=O)N[C@@H](CC(C)C)C(=O)N[C@@H](CC(C)C)C(=O)N[C@@H](CC(=O)O)C(=O)N[C@H](C(N)=O)[C@@H](C)O)C(C)C [PEP71]	0.12	–
97.5	0.04	3.9	CSCC[C@H](NC(=O)[C@H](CC(C)C)NC(=O)[C@H](Cc1c[nH]c2ccccc12)NC(=O)[C@H](CCC(N)=O)NC(=O)[C@@H](NC(=O)[C@H](Cc1ccccc1)NC(=O)[C@H](CC(=O)O)NC(=O)[C@H](CCC(N)=O)NC(=O)[C@H](C)NC(=O)[C@H](C)NC(=O)[C@H](CCCNC(=N)N)NC(=O)C(C)(C)NC(=O)[C@H](CC(=O)O)NC(=O)[C@H](CC(C)C)NC(=O)[C@H](Cc1ccc(O)cc1)NC(=O)[C@H](CCCCN)NC(=O)[C@H](CO)NC(=O)[C@H](CCCCN)NC(=O)[C@H](CC(=O)O)NC(=O)[C@H](CO)NC(=O)[C@@H](NC(=O)[C@H](Cc1ccccc1)NC(=O)[C@@H](NC(=O)CNC(=O)[C@H](CCC(N)=O)NC(=O)C(C)(C)NC(=O)[C@@H](N)Cc1c[nH]cn1)[C@@H](C)O)[C@@H](C)O)C(C)C)C(=O)N[C@@H](CC(N)=O)C(=O)N[C@H](C(=O)N[C@@H](CCCCN)C(=O)N[C@@H](CCC(N)=O)C(=O)N[C@@H](CCCCN=[N+]=[N-])C(N)=O)[C@@H](C)O [PEP72]	–	–
